Data published in article PMC3475717, “A Spiroligomer α-Helix Mimic That Binds HDM2, Penetrates Human Cells and Stabilizes HDM2 in Cell Culture” (PLoS ONE, 2012).
Entries after “also recorded” stand apart in the source; their conditions may differ.

What was measured:
Huh7 cells = assay: cell penetration, fluorescence and confocal microscopy; type: cell-based, human; details: Huh7, 37°C
Method: Table S.7. Parameters used for the non-linear fit for the plot of the competition binding experiment.
(§1) Cell Culture and Treatment. HepG2 (expressing wild-type p53) and Huh7 (expressing mutant p53) cell lines were purchased from the American Type Culture Collection (ATCC) and cultured as monolayers in Dulbecco’s modified Eagle’s medium (DMEM) (Invitrogen) supplemented with 100 mM nonessential amino acid solution, 100 mM sodium pyruvate, 100 U/mL penicillin, 100 μg/mL streptomycin, and 10% heat inactivated fetal bovine serum (FBS) (all from Hyclone).
(§2) Cells were maintained at 37° C and 5% CO2 and were treated with media that contained 0.5%
(§3) FBS. Nutlin-3 (Sigma) was dissolved in 0.01% DMSO (Sigma). This concentration of DMSO did not affect the cell phenotype. Both nutlin-3 and spiroligomers were added into the medium for final concentrations of 2 µM, 5 µM, 10 µM and 20 µM for 24 hours. For the western blot experiments detailed below, the time length for incubation with bis-peptide was 17 hours.
Fluorescence and Confocal Microscopy. Fluorescence and confocal microscopy were applied to live and fixed cells. Cells were grown on glass chambers and fixed with ice-cold 95:5 ethanol/acetic acid for 10 minutes at -20 °C. […] Fluorescent specimens were analyzed using an ECLIPSE Ti microscope (Nikon), lenses with hardened […]
Western Blotting. […] Images were quantified using ImageJ software (NIH). […]

HepG2 cells = assay: cell penetration, fluorescence and confocal microscopy; active vs. passive transport; type: cell-based, human; details: HepG2, 37°C, 5 µM, 3.75 hours
Method: as §1, §2, §3
Fluorescence and Confocal Microscopy. Fluorescence and confocal microscopy were applied to live and fixed cells. Cells were grown on glass chambers and fixed with ice-cold 95:5 ethanol/acetic acid for 10 minutes at -20 °C. Sections were washed with PBS and mounted in Vectashield aqueous mounting medium with DAPI (Vector laboratories). Fluorescent specimens were analyzed using an ECLIPSE Ti microscope (Nikon), lenses with hardened […]
(1 picture or pasted object on this page, not shown here) […]
filters (Nikon), and a Nikon DS-Fi1 camera, which was operated by NIS Elements computer software (Nikon). Confocal microscopy was performed with a Leica SP-1 microscope, with illumination at 488 nm and spectral detection. […]
Mathematical model described8 and MxPro software (Stratagene) were used to process PCR data. End-point PCR reactions were assayed with PCR Master Mix (Promega). Samples were amplified in 34 cycles; each cycle consisted of 30 sec of denaturation at 95 °C, 30 sec of annealing at 60 °C, and 30 sec of elongation at 72 °C. After 34 cycles, samples were subjected to final elongation for 5 minutes at 72 °C. […]
fluorescence in the images.

uptake of fluorescence (control) (Huh7 cells): no visible uptake of fluorescence
Compound: O=C1OC2(c3ccc(O)cc3Oc3cc(O)ccc32)c2ccccc21 [fluorescein, reference compound]
uptake of fluorescence (control) (HepG2 cells): no visible uptake of fluorescence; also recorded: failed to produce any fluorescence
